Measurements taken from ChEMBL document CHEMBL4138233, “Purine analogs targeting the guanine riboswitch as potential antibiotics against Clostridioides difficile” (Eur J Med Chem, 2018).
In brackets after ≈: the same amount, converted by molar mass. Activity calls are given as the source filed them. The rule behind the calls is not given here.

Legend:
Clostridioides difficile [1] = assay: Antibacterial activity against Clostridium difficile ATCC 700057 by broth microdilution method; format: functional
[2] = Binding affinity to Clostridium difficile [5'-32P]guaA riboswitch by polyacrylamide gel electrophoresis method; parameters: species or system Clostridioides difficile
Clostridioides difficile [3] = assay: Antibacterial activity against Clostridium difficile ATCC 700057 up to 5000 ug/ml by broth microdilution method; format: functional, organism-based
[4] = Binding affinity to Bacillus subtilis guaA riboswitch
[5] = Binding affinity to Staphylococcus aureus [5'-32P]guaA riboswitch by polyacrylamide gel electrophoresis method

Structure (SMILES) | MIC (Clostridioides difficile [1]) | Kd [2] | Activity (Clostridioides difficile [3]) | Kd [4] | Kd [5]
CN(C)C(=O)Nc1nc2[nH]cnc2c(=O)[nH]1 | 1250 µg/mL (≈ 5.63 mM) | 16.4 µM |  |  | 
Nc1nc(O)c2ncn(Cc3ccccc3)c2n1 |  | > 1000 µM | inactive |  | 
Nc1nc(NC2CC2)c2nc[nH]c2n1 | 1250 µg/mL (≈ 6.57 mM) | 25 µM |  |  | 
O=c1[nH]c(NCc2ccccn2)nc2[nH]cnc12 |  | 24.4 µM | inactive |  | 
NCCNc1nc(N)nc2[nH]cnc12 |  | > 1000 µM | inactive |  | 
O=c1[nH]c(NCCc2c[nH]cn2)nc2[nH]cnc12 | 1250 µg/mL (≈ 5.1 mM) | 300 µM |  |  | 
COc1ccc(CNc2nc(N)nc3[nH]cnc23)cc1 | 313 µg/mL (≈ 1.16 mM) | 71.3 µM |  |  | 
Cn1cnc2c(O)nc(N)nc21 [9-Methylguanine] |  | 8.1 µM | inactive |  | 
Nc1nc(NCc2ccccc2)c2[nH]cnc2n1 |  | 0.93 µM | inactive |  | 
O=c1[nH]c(NCCc2ccc(O)cc2)nc2[nH]cnc12 | 1250 µg/mL (≈ 4.61 mM) | > 1000 µM |  |  | 
Nc1nc2scnc2c(=O)[nH]1 |  | 7.4 µM | inactive |  | 
O=c1[nH]c(NC2CCCCC2)nc2[nH]cnc12 | 78 µg/mL (≈ 0.334 mM) | 6.5 µM |  |  | 
NC(=O)Nc1nc2[nH]cnc2c(=O)[nH]1 |  | 21 µM | inactive |  | 
Nc1nc(NC2CCC2)c2nc[nH]c2n1 | 1250 µg/mL (≈ 6.12 mM) | > 1000 µM |  |  | 
CCC(=O)Nc1nc2[nH]cnc2c(=O)[nH]1 |  | 0.56 µM | inactive |  | 
CNC(=O)Nc1nc2[nH]cnc2c(=O)[nH]1 |  | > 1000 µM | inactive |  | 
NCCCNc1nc(N)nc2[nH]cnc12 |  | 0.32 µM | inactive |  | 
Nc1nc(NCCCO)c2nc[nH]c2n1 |  | 0.63 µM | inactive |  | 
Nc1nc2snnc2c(=O)[nH]1 | 156 µg/mL (≈ 0.922 mM) | > 1000 µM |  |  | 
O=C(O)CCCC(=O)Nc1nc2[nH]cnc2c(=O)[nH]1 |  | 0.45 µM | inactive |  | 
Nc1nc(NCc2cccnc2)c2nc[nH]c2n1 | 625 µg/mL (≈ 2.59 mM) | > 1000 µM |  |  | 

Structure (SMILES) | MIC (Clostridioides difficile [1]) | Kd [2] | Activity (Clostridioides difficile [3]) | Kd [4] | Kd [5]
Nc1nc(NCC2CC2)c2nc[nH]c2n1 | 312 µg/mL (≈ 1.53 mM) | 68.9 µM |  |  | 
Nc1nc2nnccc2c(=O)[nH]1 |  | > 1000 µM | inactive |  | 
CC(=O)Nc1nc(=O)c2[nH]cnc2[nH]1 |  | 1.05 µM | inactive |  | 
O=c1[nH]c(NCCCO)nc2[nH]cnc12 |  | 9.8 µM | inactive |  | 
Nc1nc2[nH]cnc2c(=O)[nH]1 [GUANINE] |  | 0.002 µM |  | 0.005 µM | 
CN(C)CCNC(=O)Nc1nc2[nH]cnc2c(=O)[nH]1 |  | 2.06 µM | inactive |  | 
Nc1nc2nsnc2c(=O)[nH]1 |  | > 1000 µM | inactive |  | 
CN(C)c1nc(N)nc2[nH]cnc12 |  | 48.3 µM | inactive |  | 
Nc1nc(NCc2ccc(F)cc2)c2nc[nH]c2n1 | 313 µg/mL (≈ 1.21 mM) | 25.2 µM |  |  | 
O=C(Nc1nc2[nH]cnc2c(=O)[nH]1)N1CCCCC1 |  | 29.4 µM | inactive |  | 
O=C(NCCO)Nc1nc2[nH]cnc2c(=O)[nH]1 |  | 2.67 µM | inactive |  | 
CNc1nc2[nH]cnc2c(=O)[nH]1 |  | > 1000 µM | inactive |  | 
O=C(NCCN1CCOCC1)Nc1nc2[nH]cnc2c(=O)[nH]1 | 1250 µg/mL (≈ 4.07 mM) | 27.6 µM |  |  | 
COCCCNc1nc2[nH]cnc2c(=O)[nH]1 |  | 2.2 µM | inactive |  | 
CCCCNc1nc(O)c2[nH]cnc2n1 | 625 µg/mL (≈ 3.02 mM) | 4 µM |  |  | 
CCCCNc1nc(N)nc2[nH]cnc12 | 313 µg/mL (≈ 1.52 mM) | 12.3 µM |  |  | 
Nc1nc2ncsc2c(=O)[nH]1 | 78 µg/mL (≈ 0.464 mM) | > 1000 µM |  |  | 
CCCNc1nc(N)nc2[nH]cnc12 | 625 µg/mL (≈ 3.25 mM) | 68.3 µM |  |  | 
O=c1[nH]c(NC2CCC2)nc2[nH]cnc12 | 1250 µg/mL (≈ 6.09 mM) | 2.4 µM |  |  | 
Nc1nc(N)c(N)c(=O)[nH]1 |  |  |  |  | 0.1 µM
O=C(Nc1nc2[nH]cnc2c(=O)[nH]1)N1CCOCC1 |  | 1.81 µM | inactive |  | 
